Read-outs that look alike come from different tables or passages of the source.
Legend:
[1] = target: T1, rat prostate spermidine synthase (Rattus norvegicus, UniProt Q99MI5); assay: Inhibition of purified spermidine synthase from rat ventral prostate; format: biochemical
T1 construct: purified spermidine synthase obtained from the rat ventral prostate; from tissue; host or cells: rat ventral prostate
T1 sequence (Q99MI5 1-302): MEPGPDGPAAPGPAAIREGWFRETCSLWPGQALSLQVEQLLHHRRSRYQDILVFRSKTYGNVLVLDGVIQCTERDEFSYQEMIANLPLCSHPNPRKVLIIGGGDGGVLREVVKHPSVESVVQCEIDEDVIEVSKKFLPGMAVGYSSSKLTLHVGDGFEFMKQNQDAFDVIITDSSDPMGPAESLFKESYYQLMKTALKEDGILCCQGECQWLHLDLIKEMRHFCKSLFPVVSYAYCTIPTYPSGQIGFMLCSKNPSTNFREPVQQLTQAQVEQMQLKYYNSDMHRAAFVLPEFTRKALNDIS

[2] = target: T2, rat prostate spermine synthase (Rattus norvegicus, UniProt Q3MIE9); assay: Inhibition of rat prostate spermine synthase; format: biochemical; conditions: for inhibition at 100 µM: second preparation of spermine synthase
T2 construct: with respect to rat prostate spermine synthase; from tissue; host or cells: rat prostate
T2 sequence (Q3MIE9 1-366): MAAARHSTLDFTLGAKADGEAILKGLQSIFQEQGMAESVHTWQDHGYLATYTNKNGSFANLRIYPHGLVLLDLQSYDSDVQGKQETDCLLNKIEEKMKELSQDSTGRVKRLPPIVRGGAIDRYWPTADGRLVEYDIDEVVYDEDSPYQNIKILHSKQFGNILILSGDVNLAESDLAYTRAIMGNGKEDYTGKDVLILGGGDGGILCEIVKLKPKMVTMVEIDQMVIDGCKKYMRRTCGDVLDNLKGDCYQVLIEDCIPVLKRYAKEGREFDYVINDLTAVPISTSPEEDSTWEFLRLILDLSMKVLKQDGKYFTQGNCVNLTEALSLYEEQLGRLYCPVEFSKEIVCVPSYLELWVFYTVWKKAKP
Text: This enzyme catalyzes the synthesis of spermine in the reaction of spermidine with decarboxylated S-adenosylmethionine, presumably by direct nucleophilic attack as shown by the above transition state wherein R is aminopropyl.

[3] = target: T3, methylthioadenosine phosphorylase (Rattus norvegicus, UniProt A0A0G2K583); assay: Inhibition of methylthioadenosine (MTA) phosphorylase; format: biochemical; conditions: for % Inhibition MTA Phosphorylase: methyl thioadenosine 100 μm
T3 construct: In the tests involving MTA phosphorylase, the procedure described by H. Hibasami was employed; from tissue
T3 sequence (A0A0G2K583 1-283): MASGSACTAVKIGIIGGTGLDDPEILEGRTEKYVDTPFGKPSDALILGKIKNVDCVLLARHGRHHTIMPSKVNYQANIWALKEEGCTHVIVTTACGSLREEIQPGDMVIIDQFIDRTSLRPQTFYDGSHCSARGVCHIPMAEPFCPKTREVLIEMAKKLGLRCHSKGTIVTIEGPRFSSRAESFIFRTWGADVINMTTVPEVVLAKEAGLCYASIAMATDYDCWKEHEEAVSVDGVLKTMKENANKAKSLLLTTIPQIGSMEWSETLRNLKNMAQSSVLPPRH
Text: However, they can be readily prepared by coupling 5'-deoxy-5'-chloroadenosine with an appropriate thiol compound. […] (In the tests involving MTA phosphorylase, the procedure described by H. Hibasami was employed at a methyl thioadenosine concentration of 100 μm.)

[4] = Solubility limiting the concentration range; format: physicochemical; conditions: concentration range limited
aminopropyl transferases = conditions: another study; cited from earlier work
SAM-dependent methylases = conditions: cited from earlier work
[5] = at concentrations as high as 250 μM

NCCCCCC(O)CCN (stereo not drawn) [1,8-diamine-3-octanol, reference compound]
inhibition of spermidine synthase (in words) [1, 5]: completely inactive
inhibition of spermine synthase (in words) [2, 5]: completely inactive

CCCCCC(CC)[S+](C)C[C@H]1O[C@@H](n2cnc3c(N)ncnc32)[C@H](O)[C@@H]1O (stereo partly drawn) [Compound IIb, S-Adenosyl-3-methylthiooctane]
inhibition of spermidine synthase (in words) [1]: do not at all inhibit
% Inhibition Spermidine Synthase ([1]; Concentration 50, dcSAM 21 μm): 7%
% Inhibition Spermidine Synthase ([1]; Concentration 100, dcSAM 21 μm): 14%
% Inhibition Spermidine Synthase ([1]; Concentration 250, dcSAM 21 μm): 44%
inhibition of spermine synthase (in words) [2]: only modest inhibition
% Inhibition Spermine Synthase ([2]; Concentration 50): 35%
% Inhibition Spermine Synthase ([2]; Concentration 100): 56%
% Inhibition Spermine Synthase ([2]; Concentration 250): 75%
inhibition at 100 µM [2]: 19%
% Inhibition MTA Phosphorylase ([3]; Concentration 250): 21%

CCCCCC(CC)SC[C@H]1O[C@@H](n2cnc3c(N)ncnc32)[C@H](O)[C@@H]1O (stereo partly drawn) [Compound Ib, S-adenosyl-3-thiooctane]
inhibition of spermidine synthase (in words) [1]: do not at all inhibit
% Inhibition Spermidine Synthase ([1]; Concentration 25, dcSAM 21 μm): 0%
% Inhibition Spermidine Synthase ([1]; Concentration 100, dcSAM 21 μm): 0%
inhibition of spermine synthase (in words) [2]: almost no inhibitory activity
% Inhibition Spermine Synthase ([2]; Concentration 25): 11%
% Inhibition Spermine Synthase ([2]; Concentration 100): 22%
% Inhibition MTA Phosphorylase ([3]; Concentration 100): 25%
solubility (in words) [4]: poor solubility

NCCCCCC(CCN)SC[C@H]1O[C@@H](n2cnc3c(N)ncnc32)[C@H](O)[C@@H]1O (stereo partly drawn) [Compound Ic, S-Adenosyl-1,8-diamino-3-thiooctane]
inhibition of spermidine synthase (in words) [1]: more potent inhibitor of spermidine synthase than the fully charged methyl sulfonium salt IIc
% Inhibition Spermidine Synthase ([1]; Concentration 10, dcSAM 21 μm): 97%
% Inhibition Spermidine Synthase ([1]; Concentration 25, dcSAM 21 μm): 97%
% Inhibition Spermidine Synthase ([1]; Concentration 50, dcSAM 21 μm): 99%
% Inhibition Spermidine Synthase ([1]; Concentration 100, dcSAM 21 μm): 99%
inhibitory specificity against spermidine synthase (in words) ([1]; versus spermine synthase): unusual inhibitory specificity
inhibition of spermine synthase (in words) [2]: almost no inhibitory activity
% Inhibition Spermine Synthase ([2]; Concentration 25): 10%
effect on methylthioadenosine phosphorylase (in words) [3]: neither compound Ic nor IIc has any significant effect
% Inhibition MTA Phosphorylase ([3]; Concentration 10): 3%
% Inhibition MTA Phosphorylase ([3]; Concentration 25): 8%
% Inhibition MTA Phosphorylase ([3]; Concentration 100): 10%

C[S+](C)C[C@H]1O[C@@H](n2cnc3c(N)ncnc32)[C@H](O)[C@@H]1O.[O-][Cl+3]([O-])([O-])[O-] [IIa, Dimethyl-(5'-adenosyl)sulfonium perchlorate]
% Inhibition Spermidine Synthase ([1]; Concentration 50, dcSAM 21 μm): 0%
% Inhibition Spermidine Synthase ([1]; Concentration 250, dcSAM 21 μm): 6%
inhibition of spermine synthase (in words) [2]: shows inhibition of spermine synthase
% Inhibition Spermine Synthase ([2]; Concentration 50): 68%
% Inhibition Spermine Synthase ([2]; Concentration 250): 82%
% Inhibition MTA Phosphorylase ([3]; Concentration 250): 30%

C[S+](C[C@H]1O[C@@H](n2cnc3c(N)ncnc32)[C@H](O)[C@@H]1O)C(CCN)CCCCCN (stereo partly drawn) [IIc, S-Adenosyl-1,8-diamino-3-(methylthio)octane]
% Inhibition Spermidine Synthase ([1]; Concentration 10, dcSAM 21 μm): 32%
% Inhibition Spermidine Synthase ([1]; Concentration 50, dcSAM 21 μm): 84%
% Inhibition Spermidine Synthase ([1]; Concentration 100, dcSAM 21 μm): 92%
% Inhibition Spermidine Synthase ([1]; Concentration 250, dcSAM 21 μm): 96%
inhibition of spermine synthase (in words) [2]: only modest inhibition
% Inhibition Spermine Synthase ([2]; Concentration 10): 7%
% Inhibition Spermine Synthase ([2]; Concentration 50): 40%
% Inhibition Spermine Synthase ([2]; Concentration 100): 59%
% Inhibition Spermine Synthase ([2]; Concentration 250): 86%
inhibition at 100 µM [2]: 28%
effect on methylthioadenosine phosphorylase (in words) [3]: neither compound Ic nor IIc has any significant effect
% Inhibition MTA Phosphorylase ([3]; Concentration 250): 25%

CSC[C@H]1O[C@@H](n2cnc3c(N)ncnc32)[C@H](O)[C@@H]1O [Ia, 5'-methylthioadenosine]
inhibition of spermidine synthase (in words) [1]: inhibitor of both spermidine synthase and spermine synthase
% Inhibition Spermidine Synthase ([1]; Concentration 50, dcSAM 42 μM): 61%
% Inhibition Spermidine Synthase ([1]; Concentration 100, dcSAM 42 μM): 82%
inhibition of spermine synthase (in words) [2]: inhibitor of both spermidine synthase and spermine synthase
% Inhibition Spermine Synthase ([2]; Concentration 50, dcSAM 42 μM): 80%
% Inhibition Spermine Synthase ([2]; Concentration 100, dcSAM 42 μM): 98%
MTA Phosphorylase (substrate, in words) [3]: Substrate
inhibition of aminopropyl transferases (in words) (aminopropyl transferases): non-specific inhibition

Nc1ncnc2c1ncn2[C@@H]1O[C@H](CSCC[C@H](N)C(=O)O)[C@@H](O)[C@H]1O [S-adenosyl-L-homocysteine]
inhibition of SAM-dependent methylases (in words) (SAM-dependent methylases; another study): non-specific inhibition
Ki versus Km of S-adenosyl-L-methionine (in words) (SAM-dependent methylases; many methylases, Cantoni et al): considerably less than the Km value for the corresponding sulfonium substrate
